# In patent US12351556B2, “Pyridin-2(1H)one derivatives, their preparation and their use for the treatment of pain” (INSTITUT NATIONAL DE LA SANTE ET DE LA RECHERCHE MEDICALE …, priority 2019, dated 2025):
# “Also recorded” adds a separate entry of the source. Like-named read-outs stand apart in the source and are kept apart here.
# How the values were obtained:
# CK2 = assay: ICKP protein kinase panel screening; type: biochemical, human; conditions: 10 μM, duplicate assays
# Protocol: (§1) FIG. 3 illustrates the human kinome. Compound 69 was evaluated at the International Center For Kinase Profiling (ICKP, Dundee, Scotland) toward a panel of 50 protein kinases that provide a representative sampling of the human kinome. The results were expressed as the mean percentage of residual activity at 10 μM concentration (duplicate assays). Small disks: ≥65%, larger disk: 19%. The black square indicates the kinome region containing protein kinases evaluated in a second screening (FIG. 4, Table 4). The tree was generated using the Kinome Render software, and the illustration reproduced courtesy of Cell Signaling Technology, Inc. (www.cellsignal.com) Chartier et al PeerJ 2013, 1:e126.
# (§2) Results are expressed as the mean percentage of residual activity at 10 μM (Table 3) or 1 μM (Table 4). They are illustrated on FIGS. 3 and 4.
# (§3) Studies were undertaken to identify the possible biological target(s) of compound 69. The activation in neurons of PK such as PKCγ, ERK or p38 MAPK can contribute to pain hypersensitivity. Therefore, it was decided to screen compound 69 toward a panel of 50 PKs that provide a representative sampling of the human kinome (FIG. 3, Table 3) (Biochem. J. 2007, 408, 297-315). In this panel, p38α MAPK was identified as the privileged target, with 19% of kinase residual activity at 10 μM compound concentration.
# AMPK (hum) = assay: ICKP protein kinase panel screening; type: biochemical, human; conditions: 10 μM, duplicate assays
# Protocol: as §1, §2, §3
# ROCK 2 = assay: ICKP protein kinase panel screening; type: biochemical, human; conditions: 10 μM, duplicate assays
# Protocol: as §1, §2, §3
# p38a MAPK = p38a MAPK (Homo sapiens (Human), UniProt Q16539); assay: ICKP protein kinase panel screening; type: biochemical; conditions: duplicate assays, read-out: mean % residual activity
# p38a MAPK, sequence (Q16539 whole entry): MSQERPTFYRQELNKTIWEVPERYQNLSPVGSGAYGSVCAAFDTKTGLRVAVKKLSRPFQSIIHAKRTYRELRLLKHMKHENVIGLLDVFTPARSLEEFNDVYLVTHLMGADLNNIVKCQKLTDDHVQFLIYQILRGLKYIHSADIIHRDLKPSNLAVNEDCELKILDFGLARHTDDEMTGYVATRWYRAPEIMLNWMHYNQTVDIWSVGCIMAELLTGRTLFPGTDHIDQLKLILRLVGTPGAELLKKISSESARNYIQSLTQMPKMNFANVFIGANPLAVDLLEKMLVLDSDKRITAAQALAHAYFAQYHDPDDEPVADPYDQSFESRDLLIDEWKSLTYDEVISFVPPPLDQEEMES
# Protocol: as §1
# (§4) FIG. 4 illustrates the studies carried out for compounds 67 and 69. Compounds 67 and 69 (FIG. 4B) were evaluated at the International Center For Kinase Profiling (ICKP, Dundee, Scotland) toward a panel of 13 protein kinases. The results (FIG. 4A) were expressed as the mean percentage of residual activity at 1 μM concentration (duplicate assays). Small disks: ≥90%, larger disk: 59%, for both compounds. The tree was generated using the Kinome Render software, and the illustration reproduced courtesy of Cell Signaling Technology, Inc. (www.cellsignal.com) Chartier et al PeerJ 2013, 1:e126.
# as §2, §3
# (§5) The selectivity of compound 69 was evaluated at 1 μM toward another panel containing all four p38 MAPK isoforms, ERK1, ERK2 as well as other protein kinases close to p38α MAPK in the kinome phylogenetic tree (FIG. 4, Table 4). […] Its IC50 toward p38α MAPK was determined, showing a value in the micromolar range (IC50=3.0±0.1 μM).
# JNK1 = JNK1 (Homo sapiens (Human), UniProt P45983); assay: ICKP protein kinase panel screening; type: biochemical; conditions: duplicate assays, read-out: mean % residual activity
# JNK1, sequence (P45983 whole entry): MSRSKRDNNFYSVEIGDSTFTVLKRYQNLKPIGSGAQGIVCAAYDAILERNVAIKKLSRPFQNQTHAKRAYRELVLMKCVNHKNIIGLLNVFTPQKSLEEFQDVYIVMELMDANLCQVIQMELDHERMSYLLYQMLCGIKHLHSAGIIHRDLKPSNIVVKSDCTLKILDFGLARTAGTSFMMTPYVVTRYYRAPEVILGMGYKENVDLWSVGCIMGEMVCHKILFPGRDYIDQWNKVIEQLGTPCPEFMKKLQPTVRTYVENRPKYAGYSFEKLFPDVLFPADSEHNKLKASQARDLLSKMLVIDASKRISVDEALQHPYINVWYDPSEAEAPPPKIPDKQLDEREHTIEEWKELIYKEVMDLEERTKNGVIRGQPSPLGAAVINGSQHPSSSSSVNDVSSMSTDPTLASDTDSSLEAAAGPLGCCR
# Protocol: as §1, §4, §2, §3, §5
# [1] = tested on: inflammatory MA (face CFA model); assay: Face Complete Freund's Adjuvant (CFA) model of inflammatory mechanical allodynia; type: in vivo; conditions: rat
# Protocol: FIG. 1 illustrates the results obtained by the intracisternal application of compounds 19-24, 66-72 and 74-82. These compounds prevent face MA in a rat model of inflammatory pain (Complete Freund's Adjuvant (CFA), n=4-6 rats for each compound). For this assay, compounds (5 μL at 100 μM) or control vehicle were intra-cisternally administred 30 min before CFA injection.
# Face Complete Freund's Adjuvant (CFA) Model.
# CFA (Becton Dickinson) was dissolved in saline solution containing Tween 80 and paraffin oil and conserved at 4° C. For the behavioral tests, animals were briefly (<2 min) anesthetized using a mask with 2% isoflurane and received a subcutaneous injection of 25 μL of CFA (2.5 mg/kg) solution into the right vibrissa pad using a 27 Ga needle coupled to a 25 μL Hamilton syringe, as described previously. After injection, animals were awakened from anesthesia and placed in the behavioral experimental room, followed by a 120 min mechanical testing period.
# Intracisternal Injection:
# For investigating the effects of synthetized compounds upon mechanical allodynia, animals were briefly (<2 min) anesthetized using a mask with 2% isoflurane and received an intracisternal injection of 5 μL of compound (100 μM) or vehicle alone (saline+1% DMSO) using a 10 μL Hamilton syringe. After recovery (<2 min), rats were placed in an observation field (0.6×0.6 m square) under red light for a period test. 6-g von Frey filament was gently applied every 15 or 30 min onto the orofacial region by a first experimenter. The behavioral responses were observed and quantified by a second experimenter (see below).
# Behavioral Responses to Normally Innocuous (6-g Von Frey Filament) Mechanical Stimulation.
# The behavioral responses procedure was previously developed by Vos et al. 1994. A rat's response to mechanical stimulation consisted of one or more of the following elements: (1) detection, rat turn head toward stimulus; (2) withdrawal reaction, rat pull paw away or turn head away or pull it briskly backward when stimulation is applied (a withdrawal reaction is assumed to include a detection element preceding the head withdrawal and therefore consists of two responses elements); (3) escape/attack, rats avoid further contact with the stimulus, either passively by moving their bodies away from the stimulus, or actively by attacking the tip of the […]; (4) asymmetric grooming, rats display an uninterrupted series of at least three wash strokes directed to the stimulated area.
# The in vivo efficacy of some compounds was evaluated on a rat model of inflammatory MA (face CFA model; Alba-Delgado et al J. Neurosci. 2018, 38, 10489-10504) (FIG. 1). After receiving a subcutaneous injection of 25 μL of CFA (2.5 mg/kg) into the right vibrissa pad, rats develop a MA that lasts days. […] In this model of inflammatory MA, MA was suppressed in compound 69 treated rats, in comparison to animals treated with vehicle (FIG. 2A).
# [2] = tested on: panel of 50 protein kinases; assay: ICKP screening, whole panel of 50 protein kinases; type: biochemical, human; conditions: 10 μM
# Protocol: as §1, §2, §3
# p38α MAPK = p38α MAPK (Homo sapiens (Human), UniProt Q16539); assay: p38 alpha IC50; type: biochemical
# p38α MAPK, sequence (Q16539 whole entry): as the sequence (Q16539 whole entry) above
# Protocol: as §3, §5
smiles,measurement,setting,value
"O=c1[nH]cc(Nc2ccccc2)cc1-c1ccccc1Br [Compound 69, 3-(2-Bromophenyl)-5-(phenylamino)pyridin-2(1H)-one]",mean % residual activity,CK2,94%
same,mean % residual activity,AMPK (hum),95%
same,mean % residual activity,ROCK 2,105%
same,remaining activity at 1 µM,p38a MAPK; 1 μM,59%
same,remaining activity at 10 µM,p38a MAPK; 10 μM,19%
same,remaining activity at 1 µM,JNK1; 1 μM,115%
same,remaining activity at 10 µM,JNK1; 10 μM,102%
same,"prevention of inflammatory MA (allodynic score), compared with skepinone","[1]; intracisternal 5 μL at 10 μM or 100 μM, 30 min before CFA, skepinone 60 μg/rat",completely suppressed; also recorded: much more potent than skepinone
same,"prevention of inflammatory MA (allodynic score, 6-g von Frey filament)","[1]; intracisternal 5 μL at 100 μM, 30 min before CFA",most active; also recorded: high activities; also recorded: potent preventing effect; also recorded: completely suppressed
same,inhibition of inflammatory MA,"[1]; intracisternal 5 μL at 100 μM, 30 min before CFA injection",99%
same,"mean percentage of residual activity, other kinases of the panel (small disks)",[2]; all kinases except p38α MAPK,≥ 65%
same,selectivity for p38α MAPK over the other protein kinases,[2]; panel of 50 kinases,highly selective
same,IC50,"p38α MAPK; p38 alpha, read-out: Mean IC50",1460 nM
same,IC50,p38α MAPK; read-out: IC50 toward p38α MAPK,1500 ± 700 nM
